Data taken from patent US12595231B2 (priority 2022, dated 2026).
Read-outs that look alike come from different tables or passages of the source.

How the values were obtained:
[1] = 1-week stability study; type: physicochemical; settings: for Observation: Sigma Aldrich colour chart
Protocol: A 1-week stability study was performed for hydrochloride salt Pattern 1, besylate salt Pattern 1, fumarate salt Pattern 1+4, and fumarate salt Pattern 4.
Approximately 5 mg of the salt was weighed into 3×2 mL push cap vials. The 2 mL vials were then each placed inside a 20 mL vial, with the lids on or off as required. The solids were placed under the required stability conditions for 1 week at the following three conditions: 40° C./75% RH (open); 80° C. (closed); Ambient light, temperature and humidity (open)
After 1-week, visual observations were noted, then the solids were analysed by XRPD and HPLC.

[2] = primary salt formation assessment: solution degradation (HPLC of mother liquor); type: physicochemical; settings: salt formation experiment
Protocol: HPLC analysis was carried out to determine the chemical purity of the mesembrine and to provide information on any impurities. The following conditions were use: • Column: Waters Acquity BEH 018 1.7 μm 150 mm×2.1 mm • Column Temperature: 33° C. • Autosampler Temperature: 25° C. • UV Wavelength: 280 nm • Injection Volume: 5 μL • Flow Rate: 0.29 mL/min • Mobile Phase A: 0.1% NH4 in H2O • Mobile Phase B: Methanol:Water 20:80% v/v • Gradient Program: […]
The experiments were then temperature cycled between the upper temperature limit (specified in Table 3.1) and 5° C. at 0.1° C./min, with 1 h holds at the upper temperature limit, and 5° C. for ca. 72 h.
After temperature cycling, solids were isolated from experiments at 5° C., and analysed by XRPD.

[3] = HCl salt, background statement; cited from earlier work
[4] = DVS analysis (water uptake); type: physicochemical; settings: for hygroscopicity: from DVS water uptake at 80% RH
[5] = primary salt formation assessment: storage at 40° C./75% RH for ca. 24 h, XRPD; type: physicochemical; settings: solids stored at 40° C./75% RH for ca. 24 h
Protocol: Solids were dried at 40° C. under vacuum for ca. 24 h, and then re-analysed by XRPD.
Solids were then stored at 40° C./75% RH for ca. 24 h, and then re-analysed by XRPD.

[6] = salt hydration study in methanol/water of known water activity; type: physicochemical; settings: 25° C.; for Observation: 24 h; for Solubility: methanol/water, all levels of water activity (aw 0.2, 0.5, 0.8)
Protocol: Approximately 20 mg of the hydrochloride (HCl), besylate and fumarate salts were weighed into 3×2 mL push cap vials. 0.05-0.1 mL of relevant solvent system was added to each vial, at 25° C.
Methanol/water solvent systems (99:1, 75:25, 33:67) of known water activity (aw 0.2, 0.5 and 0.8 respectively) were used. The experiment was stirred for ca. 24 h. After 24 h, any slurries were centrifuged, and the solids analysed by XRPD.
An additional hydration study was required in order to repeat the salt hydration studies, for the HCl salt and the besylate salt due to dissolution in the first set of experiments:
For each salt, approximately 10 mg was weighed into 4×2 mL vials and a stirrer bar added. 10 μL of each solvent system was added, at 25° C. The experiments were stirred for 24 h, and any solids recovered were then analysed by XRPD.

[7] = VH-XRPD analysis (variable humidity); type: physicochemical
[8] = type: physicochemical; settings: for HPLC Conc.: 25° C., 24 h, with respect to mesembrine; for HPLC Purity: solution/mother liquor
Protocol: Approximately 20 mg of each salt was weighed into 3×2 mL push cap vials. 0.1 mL of buffer (Chloride pH 1.2; Acetate pH 4.5; Phosphate pH 6.8) was added to each vial, at 25° C. The experiment was stirred for ca. 24 h. After 2 h, the pH was measured and adjusted if required. After 24 h a final pH measurement was taken. Any slurries were centrifuged and the solids analysed by XRPD.

[9] = biological target: PDE4B (Homo sapiens, UniProt Q07343); settings: Harvey et al., 2011; cited from earlier work
[10] = biological target: 5-HT transporter (Homo sapiens, UniProt P31645); settings: Harvey et al., 2011; cited from earlier work
[11] = Ambient light, temperature and humidity, 1 week
[12] = 200 mg/mL, water activity aw 0.2 (methanol/water 99:1)
[13] = 200 mg/mL, water activity aw 0.8 (methanol/water 33:67)
[14] = 1000 mg/mL, water activity aw 0.2 (methanol/water 99:1)
[15] = 1000 mg/mL, water activity aw 0.5 (methanol/water 75:25)
[16] = 1000 mg/mL, water activity aw 0.8 (methanol/water 33:67)
[17] = Target pH 1.2 (chloride buffer)
[18] = Target pH 1.2, ca. 20 mg in 0.1 mL buffer
[19] = Target pH 4.5, ca. 20 mg in 0.1 mL buffer
[20] = Target pH 6.8 (phosphate buffer)
[21] = Target pH 6.8, ca. 20 mg in 0.1 mL buffer
[22] = 400 mg/mL, water activity aw 0.5 (methanol/water 75:25)

PDE4B, sequence (Q07343 whole entry, species assumed): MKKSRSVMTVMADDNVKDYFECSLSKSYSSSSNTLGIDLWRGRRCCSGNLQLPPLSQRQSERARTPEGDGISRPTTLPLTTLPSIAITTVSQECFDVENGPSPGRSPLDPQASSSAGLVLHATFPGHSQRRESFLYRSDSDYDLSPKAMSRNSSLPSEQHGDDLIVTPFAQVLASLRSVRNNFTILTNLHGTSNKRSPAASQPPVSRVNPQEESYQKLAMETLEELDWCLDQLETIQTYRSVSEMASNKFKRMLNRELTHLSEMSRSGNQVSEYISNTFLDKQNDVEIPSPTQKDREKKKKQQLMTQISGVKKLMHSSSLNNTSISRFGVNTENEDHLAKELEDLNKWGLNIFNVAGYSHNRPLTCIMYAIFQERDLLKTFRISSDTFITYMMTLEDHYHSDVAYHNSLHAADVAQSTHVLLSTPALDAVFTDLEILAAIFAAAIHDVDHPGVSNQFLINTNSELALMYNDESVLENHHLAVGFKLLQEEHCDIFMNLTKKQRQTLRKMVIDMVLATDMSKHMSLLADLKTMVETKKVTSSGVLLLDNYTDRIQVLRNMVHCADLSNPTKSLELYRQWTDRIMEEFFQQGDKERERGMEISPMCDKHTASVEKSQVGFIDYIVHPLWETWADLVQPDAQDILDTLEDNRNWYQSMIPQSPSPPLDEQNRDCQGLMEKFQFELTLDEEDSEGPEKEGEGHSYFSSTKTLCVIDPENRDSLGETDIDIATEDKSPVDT
5-HT transporter, sequence (P31645 whole entry, species assumed): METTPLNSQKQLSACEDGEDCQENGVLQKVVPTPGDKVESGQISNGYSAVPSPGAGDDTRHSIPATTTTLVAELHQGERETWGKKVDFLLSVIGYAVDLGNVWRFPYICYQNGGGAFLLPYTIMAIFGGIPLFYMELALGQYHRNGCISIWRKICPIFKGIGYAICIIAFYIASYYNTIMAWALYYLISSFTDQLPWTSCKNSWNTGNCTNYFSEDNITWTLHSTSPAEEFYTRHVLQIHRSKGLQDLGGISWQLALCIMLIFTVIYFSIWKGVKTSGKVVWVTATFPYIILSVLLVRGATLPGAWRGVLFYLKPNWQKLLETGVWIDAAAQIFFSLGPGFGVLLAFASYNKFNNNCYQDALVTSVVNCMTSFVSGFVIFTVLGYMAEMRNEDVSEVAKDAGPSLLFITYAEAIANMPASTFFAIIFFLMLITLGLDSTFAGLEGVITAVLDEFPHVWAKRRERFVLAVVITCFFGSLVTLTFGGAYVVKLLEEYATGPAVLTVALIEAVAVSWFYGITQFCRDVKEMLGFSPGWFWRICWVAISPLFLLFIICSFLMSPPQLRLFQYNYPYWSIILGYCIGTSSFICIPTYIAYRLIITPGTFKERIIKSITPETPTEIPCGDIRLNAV

SMILES: COc1ccc(C23CCC(=O)CC2N(C)CC3)cc1OC.Cl (stereo not drawn) [Hydrochloride Pattern 1, reference compound]
- HPLC ([1]; 40° C./75% RH (open), 1 week): 93.4 % area
- XRPD (pattern number) ([1]; 40° C./75% RH (open), 1 week): 1,
- Observation ([1]; 40° C./75% RH (open), 1 week): Light brown solids (BR8)
- HPLC ([1]; 80° C. (closed), 1 week): 92.8 % area
- XRPD (pattern number) ([1]; 80° C. (closed), 1 week): 1,
- Observation ([1]; 80° C. (closed), 1 week): Light brown solids (BR8)
- HPLC [1, 11]: 91.5 % area
- XRPD (pattern number) [1, 11]: 1,
- Observation [1, 11]: Faint beige solids (BE10)
- HPLC ([1]; Input): 90.5 % area
- XRPD (pattern number) ([1]; Input): 1,
- Observation ([1]; Input): Faint beige solids (BE10)
- solution degradation (Comments) [2]: degradation
- Solubility [3]: poorly soluble at higher concentrations
- DVS water uptake ([4]; 80% RH, 25° C.): 5.4 wt %
- DVS water uptake ([4]; 90% RH): 20.3 wt %
- hygroscopicity ([4]; 25° C.): hygroscopic
- physical stability at 40° C./75% RH (Comments) [5]: physically stable
- Observation [6, 12]: Clear solution
- Observation ([6]; 200 mg/mL, water activity aw 0.5 (methanol/water 75:25)): Clear solution
- Observation [6, 13]: Clear solution
- Observation [6, 14]: Clear solution
- Observation [6, 15]: Slurry
- Observation [6, 16]: Slurry
- solid form by VH-XRPD ([7]; after 12 h at 90% RH): remained consistent with hydrochloride salt Pattern 1
- HPLC Conc. [8, 17]: >105 mg/mL
- Observation [8, 18]: Clear solution
- HPLC Conc. ([8]; Target pH 4.5 (acetate buffer)): >146 mg/mL
- Observation [8, 19]: Clear solution
- HPLC Conc. [8, 20]: >122 mg/mL
- Observation [8, 21]: Clear solution
- HPLC Purity ([8]; Target pH 1.2, 24 h): 97.09 % area
- HPLC Purity ([8]; Target pH 4.5, 24 h): 93.45 % area
- HPLC Purity ([8]; Target pH 6.8, 24 h): 92.87 % area

SMILES: COc1ccc(C23CCC(=O)CC2N(C)CC3)cc1OC.O=S(=O)(O)c1ccccc1 (stereo not drawn) [Besylate Pattern 1, mesembrine besylate]
- HPLC ([1]; 40° C./75% RH (open), 1 week): 98.0 % area
- XRPD (pattern number) ([1]; 40° C./75% RH (open), 1 week): 1,
- Observation ([1]; 40° C./75% RH (open), 1 week): Light brown solids (BR8)
- HPLC ([1]; 80° C. (closed), 1 week): 96.7 % area
- XRPD (pattern number) ([1]; 80° C. (closed), 1 week): 1,
- Observation ([1]; 80° C. (closed), 1 week): Faint beige solids (BE10)
- HPLC [1, 11]: 98.1 % area
- XRPD (pattern number) [1, 11]: 1,
- Observation [1, 11]: Faint beige solids (BE10)
- HPLC ([1]; Input): 98.1 % area
- XRPD (pattern number) ([1]; Input): 1,
- Observation ([1]; Input): Faint beige solids (BE10)
- solution degradation (Comments) [2]: degradation
- DVS water uptake ([4]; 80% RH, 25° C.): 2.3 wt %
- DVS water uptake ([4]; 90% RH): 13 wt %
- hygroscopicity ([4]; 25° C.): hygroscopic
- physical stability at 40° C./75% RH (Comments) [5]: physically stable
- Observation [6, 12]: Clear solution
- Observation [6, 22]: Clear solution
- Observation ([6]; 400 mg/mL, water activity aw 0.8 (methanol/water 33:67)): Clear solution
- Observation [6, 14]: Clear solution
- Observation [6, 15]: Clear solution
- Observation [6, 16]: Clear solution
- Solubility ([6]; listed as besylate salt): greater than 1000 mg/mL
- Solubility ([6]; listed as besylate salt Pattern 1): > 1000 mg/mL
- solid form by VH-XRPD ([7]; after 17 h at 90% RH): persisted
- HPLC Conc. [8, 17]: >172 mg/mL
- Observation [8, 18]: Clear solution
- HPLC Conc. ([8]; Target pH 4.5 (acetate buffer)): >140 mg/mL
- Observation [8, 19]: Clear solution
- HPLC Conc. [8, 20]: >97 mg/mL
- Observation [8, 21]: Clear solution
- HPLC Purity ([8]; Target pH 1.2, 24 h): 98.01 % area
- HPLC Purity ([8]; Target pH 4.5, 24 h): 98.02 % area
- HPLC Purity ([8]; Target pH 6.8, 24 h): 97.62 % area

SMILES: COc1ccc(C23C=CC(O)CC2N(C)CC3)cc1OC (stereo not drawn) [mesembrenol]
- activity against PDE4B activity [9]: potently active
- activity in a 5-HT transporter binding assay [10]: potently active

SMILES: COc1ccc(C23CCC(=O)CC2N(C)CC3)cc1OC.O=C(O)C=CC(=O)O (stereo not drawn) [Fumarate Pattern 1 + 4, mesembrine fumarate]
- HPLC ([1]; 40° C./75% RH (open), 1 week): 95.6 % area
- XRPD (pattern number) ([1]; 40° C./75% RH (open), 1 week): 1/4,
- Observation ([1]; 40° C./75% RH (open), 1 week): Faint beige solids (BE10
- HPLC ([1]; 80° C. (closed), 1 week): 83.4 % area
- XRPD (pattern number) ([1]; 80° C. (closed), 1 week): 6,
- Observation ([1]; 80° C. (closed), 1 week): Light brown solids (BR8)
- HPLC [1, 11]: 96.1 % area
- XRPD (pattern number) [1, 11]: 1/4,
- Observation [1, 11]: Faint beige solids (BE10
- HPLC ([1]; Input): 96.6 % area
- XRPD (pattern number) ([1]; Input): 1/4,
- Observation ([1]; Input): Faint beige solids (BE10)
- DVS water uptake ([4]; 80% RH, 25° C.): 0.7 wt %
- DVS water uptake ([4]; between 0-20% RH): 2.1 wt %
- hygroscopicity ([4]; 25° C.): slightly hygroscopic
- Observation [6, 13]: Thick slurry
- Observation ([6]; 400 mg/mL, water activity aw 0.2 (methanol/water 99:1)): Thick slurry
- Observation [6, 22]: Slurry
- solid form by VH-XRPD ([7]; at 0% RH): fumarate Pattern 5
- HPLC Conc. [8, 17]: 29.44 mg/mL
- Observation [8, 18]: Slurry
- HPLC Conc. ([8]; Target pH 4.5 (acetate buffer)): >24 mg/mL
- Observation [8, 19]: Clear solution
- HPLC Conc. [8, 20]: 18.98 mg/mL
- Observation [8, 21]: Oil
- HPLC Purity ([8]; Target pH 1.2, 24 h): 96.31 % area
- HPLC Purity ([8]; Target pH 4.5, 24 h): 96.07 % area
- HPLC Purity ([8]; Target pH 6.8, 24 h): 96.78 % area
